Experimental findings from PMC6353801, “Enhanced Anti-diabetic Effect of Berberine Combined With Timosaponin B2 in Goto-Kakizaki Rats, Associated With Increased Variety and Exposure of Effective Substances Through Intestinal Absorption” (Frontiers in Pharmacology, 2019) are described below.

The series in a line: Transport in Caco-2 cells. The series is classed as in vitro ADME, human. The following applies: human. How it is done: The culture medium was changed every other day for the first 7 days and then daily for the next 14 days. […] Prior to the transport experiments, the cell monolayers were washed three times with HBSS at 37°C. […] At the same time, the corresponding opposite side was filled with medium as the receiving chamber. After incubation for 30, 60, 90, and 120 min, 250-μl aliquots of the medium was taken from the receiving chamber at each time point, and prepared for analysis by HPLC–MS/MS. […] where (ΔQ/Δt) is the linear slope of the drug concentration in the receptor chamber over time, A represents the surface area of the membrane (1.12 cm^2), and C0 is the initial concentration of drug in the donor chamber. The efflux ratio (ERpermeability) for BL to AP and AP to BL transport was defined by the following equation: […] where Papp (BL–AP) and Papp (AP–BL) are the apparent permeability of drugs from the basolateral (BL) to apical (AP) and AP to BL sides of the monolayer, respectively.

Setting [1] is: Caco-2, BBR 10 μM in presence of TB-2 (5 μM), n = 3.

Take `COc1ccc2cc3[n+](cc2c1OC)CCc1cc2c(cc1-3)OCO2` [BBR, berberine]: the efflux ratio at 10 μM (Caco-2, Caco-2, BBR 10 μM in presence of TB-2 (5 μM), read-out: ERpermeability (efflux ratio)) came out at 31.1. Moreover, under setting [1], the Papp A→B at 10 μM came out at 0.048 ± 0.014 ×10⁻⁶ cm/s and the Papp B→A at 10 μM was determined as 1.5 ± 0.499 ×10⁻⁶ cm/s.
